Columns and labels:
[1] = system: SH-SY5Y cell line; settings: cited from earlier work
[2] = cited from earlier work
[3] = cited from earlier work; remark: listed apart in the source
[4] = rats, oral; cited from earlier work
[5] = biological target: T1, COQ2 (Homo sapiens, UniProt Q96H96); settings: HL-60 cells; cited from earlier work
T1 construct: host or cells: HL-60 cells (endogenous enzyme)
T1 sequence (Q96H96 35-371): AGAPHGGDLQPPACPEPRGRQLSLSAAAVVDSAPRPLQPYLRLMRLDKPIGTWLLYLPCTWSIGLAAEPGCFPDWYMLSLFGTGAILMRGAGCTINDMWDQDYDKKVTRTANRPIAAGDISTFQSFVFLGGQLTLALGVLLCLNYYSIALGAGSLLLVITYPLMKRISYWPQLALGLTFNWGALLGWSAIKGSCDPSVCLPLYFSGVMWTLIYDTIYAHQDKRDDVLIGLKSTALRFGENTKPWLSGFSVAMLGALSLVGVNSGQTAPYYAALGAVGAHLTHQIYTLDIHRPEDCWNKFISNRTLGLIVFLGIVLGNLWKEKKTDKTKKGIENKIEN

[6] = system: SH-SY5Y cells; assay: Oxidized CoQ10 levels in PABA-induced CoQ10 deficient neuronal cells; assay type: cell-based; settings: 1 mM PABA for 5 days
Text: An established model of CoQ10 deficiency was used to study the effects of BPM31510 in vitro. […] A neuronal cell model of CoQ10 deficiency by treatment of the neuronal SH-SY5Y cell line with PABA has previously been established. In this model, a significant reduction of cellular ATP production and increase in mitochondrial reactive oxygen species (ROS) was observed. […] Therefore, this PABA-induced CoQ10 deficient in vitro model was used to evaluate the potency of BPM31510 to restore ATP levels and reduce mitochondrial ROS.
SH-SY5Y cells were pretreated for 5 days with 1 mM PABA or vehicle in all experiments.

[7] = CoQ10 supplementation 2.5 μM and 5 μM
[8] = young rats, after four days of dosing

COC1=C(OC)C(=O)C(C/C=C(\C)CC/C=C(\C)CC/C=C(\C)CC/C=C(\C)CC/C=C(\C)CC/C=C(\C)CC/C=C(\C)CC/C=C(\C)CC/C=C(\C)CCC=C(C)C)=C(C)C1=O [CoQ10, Coenzyme Q10]
electron transport chain (ETC) activities [1, 7]: unable to fully restore | mitochondrial oxidative stress [1, 7]: effective at significantly reducing | exogenous CoQ10 required to restore ETC activities ([1]; PABA treated SH-SY5Y): > 10 µM | correction of ATP and ROS levels ([1]; higher concentrations (>10 μM), reports in literature): not complete | solubility in water [2]: insoluble in water | concentration of CoQ10 in brain ([3]; 1-2 month old animals, oral administration): did not increase | CoQ10 in cerebral tissues ([3]; 12 month old and 24 month old rats, oxidized and reduced forms): accumulation of CoQ10 in cerebral tissues | concentration in heart or kidney [3, 8]: no increase | plasma, liver, and spleen concentrations [3, 8]: increased | orally-administered CoQ10 absorbed [4]: 2-3%

Nc1ccc(C(=O)O)cc1 [PABA, Para-aminobenzoic acid]
COQ2 activity [5]: inhibit COQ2 activity | reduction of oxidized CoQ10 levels [6]: approximately 90%

Reference: patent US20250262169A1, “METHODS OF TREATING COENZYME Q10 DEFICIENCY” (BPGbio, Inc., priority 2024, published 2025)
